These results are taken from PubChem BioAssay AID248 (DTP/NCI, 2004).

The subject of the assay is L1210 leukemia ip in BDF1 mice, survival T/C. Kind of assay: NCI In Vivo Anticancer Drug Screen. Data for tumor model L1210 Leukemia (intraperitoneal) in B6D2F1 (BDF1) mice. To be noted: endpoint: mean survival time, higher = longer survival. In a few lines: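 Transplanted-tumor mice were given test agent; controls received vehicle only. Survival readings from the two groups were divided (treated over control).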

[1] abbreviates: dose: 100.0 mg/kg/injection, schedule: Q01DX001 (ip), vehicle: carboxymethylcellulose (CMC).
The mark [2] stands for this setting: dose: 200.0 mg/kg/injection, schedule: Q01DX001 (ip), vehicle: carboxymethylcellulose (CMC).
[3] abbreviates: dose: 400.0 mg/kg/injection, schedule: Q01DX001 (ip), vehicle: carboxymethylcellulose (CMC).
Where [4] appears, read: dose: 100.0 mg/kg/injection, schedule: Q01DX001 (ip), vehicle: Klucel (hydroxypropylcellulose) (HPC).
Where [5] appears, read: dose: 200.0 mg/kg/injection, schedule: Q01DX001 (ip), vehicle: Klucel (hydroxypropylcellulose) (HPC).
The mark [6] stands for this setting: dose: 400.0 mg/kg/injection, schedule: Q01DX001 (ip), vehicle: Klucel (hydroxypropylcellulose) (HPC).

“And” between values parts separate entries of the source, which are not always exact repeats. Equal values may be shown once. Inconclusive results and toxic doses are left out.

In the case of `Nc1ccc(Cl)cc1N`, the T/C reads like this: (dose: 90.0 mg/kg/injection, schedule: Q01DX001 (ip), vehicle: other) 100 % of control; (dose: 90.0 mg/kg/injection, schedule: Q04DX003 (ip), vehicle: other) 97 % of control; (dose: 100.0 mg/kg/injection, schedule: Q01DX009 (ip), vehicle: saline with Tween-80) 104 % of control; (dose: 100.0 mg/kg/injection, schedule: Q04DX002 (ip), vehicle: other) 107 % of control; (dose: 175.0 mg/kg/injection, schedule: Q01DX001 (ip), vehicle: other) 105 % of control; (dose: 175.0 mg/kg/injection, schedule: Q01DX009 (ip), vehicle: other) 111 % of control. Besides, the T/C runs as follows: (dose: 175.0 mg/kg/injection, schedule: Q04DX003 (ip), vehicle: other) 100 % of control; (dose: 200.0 mg/kg/injection, schedule: Q01DX009 (ip), vehicle: saline with Tween-80) 114 % of control; (dose: 200.0 mg/kg/injection, schedule: Q04DX002 (ip), vehicle: other) 107 % of control; (dose: 265.0 mg/kg/injection, schedule: Q01DX001 (ip), vehicle: other) 99 % of control; (dose: 265.0 mg/kg/injection, schedule: Q01DX009 (ip), vehicle: other) 151 % of control; (dose: 265.0 mg/kg/injection, schedule: Q04DX003 (ip), vehicle: other) 106 % of control. Moreover, the T/C by setting is: (dose: 400.0 mg/kg/injection, schedule: Q01DX001 (ip), vehicle: other) 110 % of control; (dose: 400.0 mg/kg/injection, schedule: Q04DX002 (ip), vehicle: other) 114 % of control; (dose: 400.0 mg/kg/injection, schedule: Q04DX003 (ip), vehicle: other) 104 % of control.

On to `Cc1c(N)cc([N+](=O)[O-])c(C)c1[N+](=O)[O-]`, for which the T/C by setting is: (dose: 50.0 mg/kg/injection, schedule: Q04DX003 (ip), vehicle: saline with Tween-80) 100 % of control; (dose: 100.0 mg/kg/injection, schedule: Q04DX003 (ip), vehicle: saline with Tween-80) 96 % of control; (dose: 200.0 mg/kg/injection, schedule: Q04DX003 (ip), vehicle: saline with Tween-80) 100 % of control.

For `CCOC(=O)CCCC(=O)c1ccc(OC)c(OC)c1`, the T/C under setting [1] was 100 % of control, the T/C under setting [2] is 102 % of control and the T/C under setting [3] was 100 % of control.

Regarding `O=CNc1ncn[nH]1`, the T/C reads like this: (dose: 50.0 mg/kg/injection, schedule: Q01DX001 (ip), vehicle: saline) 98 % of control; (dose: 100.0 mg/kg/injection, schedule: Q01DX001 (ip), vehicle: saline) 98 % of control; (dose: 200.0 mg/kg/injection, schedule: Q01DX001 (ip), vehicle: saline) 104 % of control; (dose: 400.0 mg/kg/injection, schedule: Q01DX001 (ip), vehicle: saline) 104 % of control.

Turning to `O=C=Nc1ccc(C(=O)c2ccccc2)cc1`, the T/C was 93 % of control (dose: 20.0 mg/kg/injection, schedule: Q01DX009 (ip), vehicle: saline with Tween-80); 93 % of control (dose: 40.0 mg/kg/injection, schedule: Q01DX009 (ip), vehicle: saline with Tween-80); 90 % of control (dose: 80.0 mg/kg/injection, schedule: Q01DX009 (ip), vehicle: saline with Tween-80); 90 % of control (dose: 160.0 mg/kg/injection, schedule: Q01DX009 (ip), vehicle: saline with Tween-80); 93 % of control (dose: 320.0 mg/kg/injection, schedule: Q01DX009 (ip), vehicle: saline with Tween-80).

Turning to `O=C(Nc1ccccc1C(F)(F)F)OCc1ccco1`, the T/C (dose: 100.0 mg/kg/injection, schedule: Q01DX001 (ip), vehicle: gum acacia) is 102 % of control and 91 % of control; the T/C (dose: 100.0 mg/kg/injection, schedule: Q01DX009 (ip), vehicle: gum acacia) was 100 % of control; the T/C (dose: 100.0 mg/kg/injection, schedule: Q04DX002 (ip), vehicle: gum acacia) is 95 % of control and 101 % of control; the T/C (dose: 100.0 mg/kg/injection, schedule: Q04DX003 (ip), vehicle: gum acacia) is 94 % of control and 99 % of control; the T/C (dose: 200.0 mg/kg/injection, schedule: Q01DX001 (ip), vehicle: gum acacia) is 98 % of control and 105 % of control; the T/C (dose: 200.0 mg/kg/injection, schedule: Q01DX009 (ip), vehicle: gum acacia) is 97 % of control. In addition, the T/C reads like this: (dose: 200.0 mg/kg/injection, schedule: Q04DX002 (ip), vehicle: gum acacia) 99 % of control and 108 % of control; (dose: 200.0 mg/kg/injection, schedule: Q04DX003 (ip), vehicle: gum acacia) 96 % of control and 92 % of control; (dose: 400.0 mg/kg/injection, schedule: Q01DX001 (ip), vehicle: gum acacia) 94 % of control and 95 % of control; (dose: 400.0 mg/kg/injection, schedule: Q01DX009 (ip), vehicle: gum acacia) 105 % of control; (dose: 400.0 mg/kg/injection, schedule: Q04DX002 (ip), vehicle: gum acacia) 99 % of control and 101 % of control; (dose: 400.0 mg/kg/injection, schedule: Q04DX003 (ip), vehicle: gum acacia) 108 % of control and 92 % of control.

Regarding `CCCCCCCCCCCCCS`, the T/C (dose: 40.0 mg/kg/injection, schedule: Q01DX Z (ip), vehicle: saline) is 108 % of control; the T/C (dose: 50.0 mg/kg/injection, schedule: Q04DX003 (ip), vehicle: carboxymethylcellulose (CMC)) is 100 % of control; the T/C (dose: 60.0 mg/kg/injection, schedule: Q01DX Z (ip), vehicle: saline) was 120 % of control; the T/C (dose: 90.0 mg/kg/injection, schedule: Q01DX Z (ip), vehicle: saline) was 111 % of control; the T/C under setting [1] was 110 % of control; the T/C (dose: 100.0 mg/kg/injection, schedule: Q04DX003 (ip), vehicle: carboxymethylcellulose (CMC)) is 105 % of control. Moreover, the T/C (dose: 135.0 mg/kg/injection, schedule: Q01DX Z (ip), vehicle: saline) is 120 % of control; the T/C under setting [2] was 101 % of control; the T/C (dose: 200.0 mg/kg/injection, schedule: Q01DX Z (ip), vehicle: saline) is 108 % of control; the T/C (dose: 200.0 mg/kg/injection, schedule: Q04DX003 (ip), vehicle: carboxymethylcellulose (CMC)) is 100 % of control; the T/C (dose: 202.5 mg/kg/injection, schedule: Q01DX Z (ip), vehicle: saline) is 117 % of control; the T/C under setting [3] is 116 % of control. Besides, the T/C is 108 % of control (dose: 450.0 mg/kg/injection, schedule: Q01DX Z (ip), vehicle: saline) and 90 % of control (dose: 675.0 mg/kg/injection, schedule: Q01DX Z (ip), vehicle: saline).

As for `Cc1nc[nH]c(=O)c1CCC(C)C`, the T/C was 107 % of control under setting [4], 105 % of control under setting [5] and 100 % of control under setting [6].

For `O=C(C[n+]1ccccc1CO)c1ccc(-c2ccc(C(=O)C[n+]3ccccc3CO)cc2)cc1`, the T/C is 97 % of control (dose: 0.15 mg/kg/injection, schedule: Q04DX003 (ip), vehicle: saline); 96 % of control (dose: 0.3 mg/kg/injection, schedule: Q04DX003 (ip), vehicle: saline); 100 % of control (dose: 0.6 mg/kg/injection, schedule: Q04DX003 (ip), vehicle: saline).

With `CC(=O)Oc1cc2c(cc1[N+](=O)[O-])OCO2`, the T/C under setting [4] was 104 % of control; the T/C (dose: 100.0 mg/kg/injection, schedule: Q04DX003 (ip), vehicle: Klucel (hydroxypropylcellulose) (HPC)) was 94 % of control; the T/C under setting [5] was 94 % of control; the T/C (dose: 200.0 mg/kg/injection, schedule: Q04DX003 (ip), vehicle: Klucel (hydroxypropylcellulose) (HPC)) is 93 % of control; the T/C under setting [6] is 98 % of control; the T/C (dose: 400.0 mg/kg/injection, schedule: Q04DX003 (ip), vehicle: Klucel (hydroxypropylcellulose) (HPC)) is 105 % of control.

`N=C(N)SC1c2ccccc2-c2ccc(Br)cc21` (stereo not given): the T/C (dose: 75.0 mg/kg/injection, schedule: Q01DX001 (ip), vehicle: carboxymethylcellulose (CMC)) is 104 % of control and the T/C (dose: 150.0 mg/kg/injection, schedule: Q01DX001 (ip), vehicle: carboxymethylcellulose (CMC)) is 91 % of control.

As for `CCCCCCCCCCCCCCCCn1cnc2c(=S)nc[nH]c21`, the T/C reads like this: (dose: 12.5 mg/kg/injection, schedule: Q01DX005 (ip), vehicle: other) 102 % of control; (dose: 25.0 mg/kg/injection, schedule: Q01DX005 (ip), vehicle: other) 96 % of control; (dose: 50.0 mg/kg/injection, schedule: Q01DX005 (ip), vehicle: other) 104 % of control; (dose: 100.0 mg/kg/injection, schedule: Q01DX005 (ip), vehicle: other) 104 % of control; (dose: 200.0 mg/kg/injection, schedule: Q01DX005 (ip), vehicle: other) 96 % of control.
